Reference: patent US20120237651A1 (priority 2002, published 2012)
“And” between values parts separate entries of the source, which are not always exact repeats. Equal entries are not always repeated. Structures can show the parent of a compound that is named as a salt. Where two headings read alike, the source gives them in different places.

Experiments:
Fusarium head blight [1] = type: in vivo, Wheat (cultivar: Haruyutaka)
Fusarium head blight [2] = type: in vivo, Wheat (cultivar: Haruyutaka); remark: listed apart in the source
DON contamination [3] = experiment: Field test, mixed use (2): DON contamination concentration by ELISA (Example 4); type: in vivo, Wheat (cultivar: Haruyutaka)
DON contamination [4] = experiment: Field test, mixed use (1): DON contamination concentration by HPLC-UV (Example 3); type: in vivo, Wheat (cultivar: Haruyutaka)
Description: Wheat (cultivar: Haruyutaka) was seeded on Apr. […] A suspension containing potassium phosphite and various fungicidal agents was prepared in a liquid mixture made up of a spreading agent (Gramine S: supplied from Hokkai Sankyo Co., Ltd.) and water. Using potassium phosphite as the compound A, 0.070% P2O5, and the 0.006 to 0.025% fungicidal agent for agri-horticulture for the wheat as the compound B, water solution containing them was prepared, and 100 L thereof per 10 a was sprayed on leaves in the following growth stages. That is, the first spray (June 24, heading date), the second (June 30, flowering stage), the third (July 9) were performed. The harvest was performed on August 12 (50 days after the heading date) by harvesting the wheat in 3.4 m^2 in each section. […] The DON contamination concentration was analyzed using HPLC-UV method in officially fixed methods shown by the Minister of Health, Labor and Welfare. Quantitative analysis was performed by repeating three times, and the quantitative value was an average value thereof.
Preparation of analysis sample solutions and the analysis procedure are briefly described.
To 50 g of the whole grain powder, 85% acetonitrile was added, vigorously agitated for 30 min, and subsequently sonicated for 10 min.
After eliminating impurities with filter paper, a filtrate was purified using a pretreatment column MultiSep #227 to make a solution for analysis.
The test solution for analysis was injected into high performance liquid chromatography, and DON was detected by ultraviolet rays.

DON contamination [5] = experiment: Field test, single use: DON contamination concentration of wheat whole grain powder by ELISA (Example 1); conditions: for DON concentration: 3 foliar sprays
Description: Wheat (cultivar: Haruyutaka) was seeded on Apr. 19, 2002, and cultivated according to a conventional cultivating standard (Hokkaido, Agriculture Department, 1995) to establish test sections with 6.75 m^2 per section (3 repeats). […] That is, the first spray (June 28, flowering date), the second spray (Jul. 8, 10 days after the flowering date, and the third spray (Jul. 18, 20 days after the flowering date) were performed. A conventional control for the purpose of controlling plant pathogens and plant insects was performed together. That is, the first [June 20, azoxystrobin (2000 times dilution)+fenitrothion (1000 times dilution)], the second [tebuconazole (June 28, 2000 times dilution)+sumithione (1000 times dilution)], and the third [July 8, propiconazole (2000 times dilution)+fenitrothion (1000 times dilution)], the forth [July 17, tebuconazole (2000 times dilution)+fenitrothion (1000 times dilution)] were performed. As controls, the test section where only the conventional control was given and the test section without any control were established. Harvest was performed by harvesting the wheat in 4 m^2 in the test sections on August 9 (52 days after the heading date). After the harvest, the wheat was applied on a rice grader with 2.2 mm opening of screen to make selected grains, which were then pulverized by a rapid pulverizer to make whole grain powder. The whole grain powder was used as a sample for analysis. The DON contamination concentration was analyzed by ELISA method using commercially available Rida Screen Fast Don supplied from r-Biopharm.
Preparation of analysis sample solutions and analysis procedure are briefly described.
To 5 g of the whole grain powder, 100 ml of water was added, and vigorously agitated for 10 min to make a DON extract solution.
The DON extract solution was centrifuged at high speed, and the supernatant was used for the ELISA analysis.
According to the method described on ELISA kit, various reagents were added, and subsequently an absorbance of each test solution was measured.
The DON concentration of each test solution was read out from a standard curve made using DON standard solutions.

Fusarium head blight [6] = type: in vivo, Wheat (cultivar: Haruyutaka); remark: listed apart in the source
DON contamination [7] = system: DON contamination; set-up: species or system Wheat (cultivar: Haruyutaka); conditions: in vivo
[8] = system: Fusarium graminearum having DON production capacity; type: cell-based
Fusarium graminearum [9] = type: cell-based; conditions: for Ergosterol peak area: day 28 of culture
[10] = system: Fusarium graminearum having DON production capacity; type: cell-based; remark: listed apart in the source
Fusarium graminearum [11] = type: cell-based; conditions: potassium phosphite 5.6%; for Ergosterol peak area value: 27° C.
[12] = Propiconazole 0.017% mixed with potassium phosphite 0.07% P2O5
[13] = Propiconazole 0.017% mixed with potassium phosphite 0.070% in P2O5
[14] = Propiconazole 0.017%, without potassium phosphite
[15] = Trifloxystrobin 0.025% mixed with potassium phosphite 0.070% in P2O5
[16] = Trifloxystrobin 0.025%, without potassium phosphite
[17] = active ingredient A 0.112% (as P2O5), conventional control
[18] = Tebuconazole 0.020% mixed with potassium phosphite 0.07% P2O5
[19] = Tebuconazole 0.020% mixed with potassium phosphite 0.070% in P2O5
[20] = Tebuconazole 0.020%, without potassium phosphite
[21] = Kresoxim-methyl 0.021% mixed with potassium phosphite 0.07% P2O5
[22] = Kresoxim-methyl 0.021%, without potassium phosphite
[23] = active ingredient A 0.120% (as P2O5), conventional control
[24] = potassium phosphite 0.07% P2O5 alone, no active ingredient B
[25] = active ingredient A 0.038% (as P2O5), conventional control
[26] = active ingredient A 0.070% (as P2O5), conventional control
[27] = active ingredient A 0.112% (as P2O5), no control
[28] = potassium phosphite 0.070% in P2O5 alone, no active ingredient B
[29] = sulfur 0.125% mixed with potassium phosphite 0.070% in P2O5
[30] = sulfur 0.125%, without potassium phosphite
[31] = Iminoctadine acetate 0.025% mixed with potassium phosphite 0.07% P2O5
[32] = Iminoctadine acetate 0.025%, without potassium phosphite
[33] = Metconazole 0.006% mixed with potassium phosphite 0.07% P2O5
[34] = Metconazole 0.006%, without potassium phosphite

For `CCCC1COC(Cn2cncn2)(c2ccc(Cl)cc2Cl)O1` (stereo not drawn) [Propiconazole, 1-[2-(2,4-dichlorophenyl)-4-propyl-1,3-dioxolan-2-ylmethyl)-1H-1,2,4-triazole], the “Incidence rate for panicles” value (Fusarium head blight [1]; [12]) was 2.7%, the “Number of diseased spikelets/panicle” value (Fusarium head blight [1]; [12]) was 0.027 and the “Incidence rate for panicles” value (Fusarium head blight [2]; [13]) was 4.7%. For the same compound, the “Number of diseased spikelets/panicle” value (Fusarium head blight [2]; [13]) was 5.0, the DON concentration (DON contamination [3]; [13]) was 0.11 ppm and the DON concentration (DON contamination [3]; [14]) was 0.57 ppm. It also gave a DON concentration (DON contamination [4]; [12]) of 0.72 ppm and a DON concentration (DON contamination [4]; [14]) of 1.01 ppm.
`CON=C(C(=O)OC)c1ccccc1CON=C(C)c1cccc(C(F)(F)F)c1` [Trifloxystrobin] was tested, and the “Incidence rate for panicles” value (Fusarium head blight [2]; [15]) was 3.0%, the “Number of diseased spikelets/panicle” value (Fusarium head blight [2]; [15]) was 3.0 and the “Incidence rate for panicles” value (Fusarium head blight [2]; [16]) was 4.3%. For the same compound, the “Number of diseased spikelets/panicle” value (Fusarium head blight [2]; [16]) was 5.0, the DON concentration (DON contamination [3]; [15]) was 0.12 ppm and the DON concentration (DON contamination [3]; [16]) was 0.35 ppm.
With potassium phosphate the DON inhibitory effect (DON contamination [5]; Example 1, summary in text) was “low”, the DON concentration (DON contamination [5]; [17]) was 4.66 ppm and the “Incidence rate of Fusarium head blight for panicles” value (Fusarium head blight [6]; [17]) was 0.0%. For the same compound, the “DON concentration diseased grain” value (DON contamination [7]) was 86.9 ppm and the “DON concentration healthy grain” value (DON contamination [7]) was 0.06 ppm.
For `CC(C)(C)C(O)(CCc1ccc(Cl)cc1)Cn1cncn1` (racemic) [Tebuconazole, (RS)-1-p-chlorophenyl-4,4-dimethyl-3-(1H-1,2,4-triazol-1-ylmethyl)pentan-3-ol], the “Incidence rate for panicles” value (Fusarium head blight [1]; [18]) was 1.0%, the “Number of diseased spikelets/panicle” value (Fusarium head blight [1]; [18]) was 0.010 and the “Incidence rate for panicles” value (Fusarium head blight [2]; [19]) was 5.0%. The “Number of diseased spikelets/panicle” value (Fusarium head blight [2]; [19]) was 5.0, the DON concentration (DON contamination [3]; [19]) was 0.08 ppm and the DON concentration (DON contamination [3]; [20]) was 0.16 ppm. For the same compound, the DON concentration (DON contamination [4]; [18]) was 0.38 ppm and the DON concentration (DON contamination [4]; [20]) was 0.39 ppm.
Iminoctadine albesilate was tested, and the “Incidence rate for panicles” value (Fusarium head blight [2]; in vivo) was 7.3% and 2.7%, the DON concentration (DON contamination [3]; Iminoctadine albesilate 0.030% mixed with potassium phosphite 0.070% in P2O5) was 0.00 ppm and the DON concentration (DON contamination [3]; Iminoctadine albesilate 0.030%, without potassium phosphite) was 0.22 ppm.
For `CO/N=C(/C(=O)OC)c1ccccc1COc1ccccc1C` [Kresoxim-methyl, methyl=(E)-2-methoxyimino[α-(o-tolyloxy)-o-tolyl]acetate], the “Incidence rate for panicles” value (Fusarium head blight [1]; [21]) was 0.7%, the “Number of diseased spikelets/panicle” value (Fusarium head blight [1]; [21]) was 0.007 and the “Incidence rate for panicles” value (Fusarium head blight [1]; [22]) was 0.3%. For the same compound, the “Number of diseased spikelets/panicle” value (Fusarium head blight [1]; [22]) was 0.003, the DON concentration (DON contamination [4]; [21]) was 0.51 ppm and the DON concentration (DON contamination [4]; [22]) was 1.05 ppm.
With `CCO[PH](=O)O` [Fosetyl, aluminium salt (common name: fosetyl) of tris(ethylphosphonate)] the DON concentration (DON contamination [5]; [23]) was 0.84 ppm, the “Incidence rate of Fusarium head blight for panicles” value (Fusarium head blight [6]; [23]) was 0.0% and the “DON concentration diseased grain” value (DON contamination [7]) was 11.0 ppm. For the same compound, the “DON concentration healthy grain” value (DON contamination [7]) was 0.96 ppm.
potassium phosphite was tested, and the DON [8] was “ND. (key: ND.: ND means that the analytical value is less than the detection limit (0.222 ppm) of the ELISA analysis kit.)”, the DON production [8] was “not detected” and the Ergosterol peak area (Fusarium graminearum [9]; treatment concentration 0.028%) was 1810454. It also gave an Ergosterol peak area (Fusarium graminearum [9]; treatment concentration 0.056%) of 1834861, an Ergosterol peak area (Fusarium graminearum [9]; treatment concentration 0.112%) of 1769582 and an Ergosterol peak area (Fusarium graminearum [9]; treatment concentration 0.560%) of 1921693. For the same compound, the Ergosterol peak area (Fusarium graminearum [9]; treatment concentration 2.800%) was 85891, the “inhibitory effect on the fungal amount” value (Fusarium graminearum [9]; water solution of 0.056 to 0.560% potassium phosphite, compared to non-treatment) was “inhibitory effect on the fungal amount at a moderate degree” and the “inhibitory effect on the fungal amount” value (Fusarium graminearum [9]; water solution of 2.800% potassium phosphite) was “remarkable inhibitory effect on the fungal amount”. The “Incidence rate for panicles” value (Fusarium head blight [1]; [24]) was 4.3%, the “Number of diseased spikelets/panicle” value (Fusarium head blight [1]; [24]) was 0.050 and the DON concentration (DON contamination [5]; [25]) was 2.41 ppm. It also gave a DON concentration (DON contamination [5]; [26]) of 0.59 ppm, a DON concentration (DON contamination [5]; [17]) of 0.39 ppm and a DON concentration (DON contamination [5]; [27]) of 0.69 ppm. For the same compound, the DON amount [10] was “significantly lower than that in the non-treatment”, the “Incidence rate for panicles” value (Fusarium head blight [2]; [28]) was 10.3% and the “Number of diseased spikelets/panicle” value (Fusarium head blight [2]; [28]) was 11.0. The “Incidence rate of Fusarium head blight for panicles” value (Fusarium head blight [6]; [25]) was 0.3%, the “Incidence rate of Fusarium head blight for panicles” value (Fusarium head blight [6]; [26]) was 0.0% and the “Incidence rate of Fusarium head blight for panicles” value (Fusarium head blight [6]; [17]) was 0.9%. For the same compound, the “Incidence rate of Fusarium head blight for panicles” value (Fusarium head blight [6]; [27]) was 1.2%, the DON concentration (DON contamination [3]; [28]) was 0.57 ppm and the DON contamination amount (DON contamination [3]; single agent treatment with the compound A) was “at a low level”. The DON concentration (DON contamination [4]; [24]) was 0.77 ppm, the “DON concentration healthy grain” value (DON contamination [7]) was 0.05 ppm and 0.04 ppm and the “DON contamination concentration in diseased grains” value (DON contamination [7]) was “decreased depending on the given concentration of potassium phosphite”. The “Ergosterol peak area value” (Fusarium graminearum [11]; 7 days of culturing) was 17952, the “Ergosterol peak area value” (Fusarium graminearum [11]; 14 days of culturing) was 115921 and the “Ergosterol peak area value” (Fusarium graminearum [11]; 21 days of culturing) was 372377. The “Ergosterol peak area value” (Fusarium graminearum [11]; 28 days of culturing) was 350972 and the “amount of ergosterol (indicator of the amount of fungi)” value (Fusarium graminearum [11]; course over culture) was “reached a plateau on the 21st day”.
With `S1SSSSSSS1` [sulfur] the “Incidence rate for panicles” value (Fusarium head blight [2]; [29]) was 8.7%, the “Number of diseased spikelets/panicle” value (Fusarium head blight [2]; [29]) was 8.7 and the “Incidence rate for panicles” value (Fusarium head blight [2]; [30]) was 8.7%. For the same compound, the “Number of diseased spikelets/panicle” value (Fusarium head blight [2]; [30]) was 10.3, the DON concentration (DON contamination [3]; [29]) was 0.43 ppm and the DON concentration (DON contamination [3]; [30]) was 1.85 ppm.
`CC(=O)O.CC(=O)O.CC(=O)O.NC(N)=NCCCCCCCCNCCCCCCCCN=C(N)N` [Iminoctadine acetate, 1,1′-iminodi(octamethylene)diguanidium=triacetate] was tested, and the “Incidence rate for panicles” value (Fusarium head blight [1]; [31]) was 3.0%, the “Number of diseased spikelets/panicle” value (Fusarium head blight [1]; [31]) was 0.030 and the “Incidence rate for panicles” value (Fusarium head blight [1]; [32]) was 1.7%. The “Number of diseased spikelets/panicle” value (Fusarium head blight [1]; [32]) was 0.017, the DON concentration (DON contamination [4]; [31]) was 0.20 ppm and the DON concentration (DON contamination [4]; [32]) was 1.04 ppm.
In the case of `CC1(C)CCC(Cc2ccc(Cl)cc2)C1(O)Cn1cncn1` (racemic) [Metconazole, (1RS,5RS)-5-(4-chlorobenzyl)-2,2-dimethyl-1-(1-H-1,2,4-triazol-1-ylmethyl)cyclopentanol], the “Incidence rate for panicles” value (Fusarium head blight [1]; [33]) is reported as 1.0%, the “Number of diseased spikelets/panicle” value (Fusarium head blight [1]; [33]) is reported as 0.010 and the “Incidence rate for panicles” value (Fusarium head blight [1]; [34]) is reported as 0.7%. For the same compound, the “Number of diseased spikelets/panicle” value (Fusarium head blight [1]; [34]) was 0.007, the DON concentration (DON contamination [4]; [33]) was 0.10 ppm and the DON concentration (DON contamination [4]; [34]) was 0.34 ppm.
